Data: PubChem BioAssay AID1745844 (Carcinogenic Potency Database (CPDB), 2022)

System: rodent lifetime carcinogenesis bioassay, tumor incidence TD50
Experiment: chronic cancer bioassays in animals – CPDB, compiled studies (AID 1745844)
Conditions: rat

C=CCl
TD50 (strain Charles River CD (Sprague-Dawley), females, inhaled, site: liver, lesion: hemangiosarcoma, dosed 26 weeks, study length 78 weeks): 115 mg/kg/day | TD50 (strain Charles River CD (Sprague-Dawley), females, inhaled, site: liver, lesion: hemangiosarcoma, dosed 43 weeks, study length 95 weeks): 69.5 mg/kg/day | TD50 (strain Charles River CD (Sprague-Dawley), females, inhaled, site: liver, lesion: hepatocellular carcinoma, dosed 43 weeks, study length 95 weeks): 225 mg/kg/day | TD50 (strain Charles River CD (Sprague-Dawley), females, inhaled, site: liver, lesion: neoplastic nodule, dosed 43 weeks, study length 95 weeks): 315 mg/kg/day | TD50 (strain Charles River CD (Sprague-Dawley), males, inhaled, site: liver, lesion: hemangiosarcoma, dosed 43 weeks, study length 95 weeks): 103 mg/kg/day | TD50 (strain Charles River CD (Sprague-Dawley), males, inhaled, site: liver, lesion: hepatocellular carcinoma, dosed 26 weeks, study length 78 weeks): 52.9 mg/kg/day | TD50 (strain Charles River CD (Sprague-Dawley), males, inhaled, site: liver, lesion: hepatocellular carcinoma, dosed 43 weeks, study length 95 weeks): 265 mg/kg/day | TD50 (strain Charles River CD (Sprague-Dawley), males, inhaled, site: liver, lesion: neoplastic nodule, dosed 26 weeks, study length 78 weeks): 11.5 mg/kg/day | TD50 (strain Charles River CD (Sprague-Dawley), males, inhaled, site: liver, lesion: neoplastic nodule, dosed 43 weeks, study length 95 weeks): 34.6 mg/kg/day | TD50 (strain Fischer 344, females, inhaled, site: all sites, lesion: hemangiosarcoma, dosed 26 weeks, study length 104 weeks): 91.2 mg/kg/day | TD50 (strain Fischer 344, females, inhaled, site: all sites, lesion: hemangiosarcoma, dosed 52 weeks, study length 104 weeks): 29.5 mg/kg/day | TD50 (strain Fischer 344, females, inhaled, site: all sites, lesion: hemangiosarcoma, dosed 78 weeks, study length 104 weeks): 32.8 mg/kg/day | TD50 (strain Fischer 344, females, inhaled, site: all sites, lesion: hemangiosarcoma, dosed 104 weeks, study length 104 weeks): 23.6 mg/kg/day | TD50 (strain Fischer 344, females, inhaled, site: liver, lesion: hepatocellular carcinoma, dosed 26 weeks, study length 104 weeks): 103 mg/kg/day | TD50 (strain Fischer 344, females, inhaled, site: liver, lesion: hepatocellular carcinoma, dosed 52 weeks, study length 104 weeks): 101 mg/kg/day | TD50 (strain Fischer 344, females, inhaled, site: liver, lesion: hepatocellular carcinoma, dosed 78 weeks, study length 104 weeks): 65.2 mg/kg/day | TD50 (strain Fischer 344, females, inhaled, site: liver, lesion: hepatocellular carcinoma, dosed 104 weeks, study length 104 weeks): 77.2 mg/kg/day | TD50 (strain Fischer 344, females, inhaled, site: liver, lesion: neoplastic nodule, dosed 26 weeks, study length 104 weeks): 17.6 mg/kg/day | TD50 (strain Fischer 344, females, inhaled, site: liver, lesion: neoplastic nodule, dosed 52 weeks, study length 104 weeks): 16.2 mg/kg/day | TD50 (strain Fischer 344, females, inhaled, site: liver, lesion: neoplastic nodule, dosed 78 weeks, study length 104 weeks): 96.3 mg/kg/day | TD50 (strain Fischer 344, females, inhaled, site: liver, lesion: neoplastic nodule, dosed 104 weeks, study length 104 weeks): 166 mg/kg/day | TD50 (strain Fischer 344, females, inhaled, site: mammary gland, lesion: adenocarcinoma, dosed 52 weeks, study length 104 weeks): 38 mg/kg/day | TD50 (strain Fischer 344, females, inhaled, site: mammary gland, lesion: adenocarcinoma, dosed 78 weeks, study length 104 weeks): 74.2 mg/kg/day | TD50 (strain Fischer 344, females, inhaled, site: mammary gland, lesion: adenocarcinoma, dosed 104 weeks, study length 104 weeks): 264 mg/kg/day | TD50 (strain Fischer 344, females, inhaled, site: mammary gland, lesion: fibroadenoma, dosed 26 weeks, study length 104 weeks): 15.1 mg/kg/day | TD50 (strain Fischer 344, females, inhaled, site: mammary gland, lesion: fibroadenoma, dosed 52 weeks, study length 104 weeks): 14.6 mg/kg/day | TD50 (strain Fischer 344, females, inhaled, site: mammary gland, lesion: fibroadenoma, dosed 78 weeks, study length 104 weeks): 29.7 mg/kg/day | TD50 (strain Fischer 344, females, inhaled, site: mammary gland, lesion: fibroadenoma, dosed 104 weeks, study length 104 weeks): 32.9 mg/kg/day | TD50 (strain Sprague-Dawley, females, by gavage, site: Zymbal's gland, lesion: carcinoma, dosed 59 weeks, study length 129 weeks): 5.05 mg/kg/day | TD50 (strain Sprague-Dawley, females, by gavage, site: any site (literature study), lesion: several types, types named in the paper, dosed 52 weeks, study length 127 weeks): 35.2 mg/kg/day | TD50 (strain Sprague-Dawley, females, by gavage, site: any site (literature study), lesion: several types, types named in the paper, dosed 59 weeks, study length 129 weeks): 0.878 mg/kg/day | TD50 (strain Sprague-Dawley, females, by gavage, site: extrahepatic tissue, lesion: angioma, dosed 52 weeks, study length 127 weeks): 408 mg/kg/day | TD50 (strain Sprague-Dawley, females, by gavage, site: extrahepatic tissue, lesion: angiosarcoma, dosed 52 weeks, study length 127 weeks): 454 mg/kg/day | TD50 (strain Sprague-Dawley, females, by gavage, site: extrahepatic tissue, lesion: angiosarcoma, dosed 59 weeks, study length 129 weeks): 10.9 mg/kg/day | TD50 (strain Sprague-Dawley, females, by gavage, site: kidney, lesion: nephroblastoma, dosed 52 weeks, study length 127 weeks): 182 mg/kg/day | TD50 (strain Sprague-Dawley, females, by gavage, site: liver, lesion: angioma, dosed 52 weeks, study length 127 weeks): 207 mg/kg/day | TD50 (strain Sprague-Dawley, females, by gavage, site: liver, lesion: angiosarcoma, dosed 52 weeks, study length 127 weeks): 38.6 mg/kg/day | TD50 (strain Sprague-Dawley, females, by gavage, site: liver, lesion: angiosarcoma, dosed 59 weeks, study length 129 weeks): 3.58 mg/kg/day | TD50 (strain Sprague-Dawley, females, inhaled, site: Zymbal's gland, lesion: carcinoma, dosed 25 weeks, study length 127 weeks): 1200 mg/kg/day | TD50 (strain Sprague-Dawley, females, inhaled, site: Zymbal's gland, lesion: carcinoma, dosed 25 weeks, study length 135 weeks): 569 mg/kg/day | TD50 (strain Sprague-Dawley, females, inhaled, site: Zymbal's gland, lesion: carcinoma, dosed 52 weeks, study length 111 weeks): 67.9 mg/kg/day | TD50 (strain Sprague-Dawley, females, inhaled, site: Zymbal's gland, lesion: carcinoma, dosed 52 weeks, study length 139 weeks): 1070 mg/kg/day | TD50 (strain Sprague-Dawley, females, inhaled, site: Zymbal's gland, lesion: carcinoma, dosed 71 weeks, study length 71 weeks): 1190 mg/kg/day | TD50 (strain Sprague-Dawley, females, inhaled, site: any site (literature study), lesion: several types, types named in the paper, dosed 25 weeks, study length 127 weeks): 309 mg/kg/day | TD50 (strain Sprague-Dawley, females, inhaled, site: any site (literature study), lesion: several types, types named in the paper, dosed 25 weeks, study length 135 weeks): 51.5 mg/kg/day | TD50 (strain Sprague-Dawley, females, inhaled, site: any site (literature study), lesion: several types, types named in the paper, dosed 52 weeks, study length 111 weeks): 2.12 mg/kg/day | TD50 (strain Sprague-Dawley, females, inhaled, site: any site (literature study), lesion: several types, types named in the paper, dosed 52 weeks, study length 139 weeks): 37.4 mg/kg/day | TD50 (strain Sprague-Dawley, females, inhaled, site: any site (literature study), lesion: several types, types named in the paper, dosed 71 weeks, study length 71 weeks): 70.5 mg/kg/day | TD50 (strain Sprague-Dawley, females, inhaled, site: brain, lesion: neuroblastoma, dosed 25 weeks, study length 135 weeks): 3630 mg/kg/day | TD50 (strain Sprague-Dawley, females, inhaled, site: brain, lesion: neuroblastoma, dosed 52 weeks, study length 131 weeks): 4850 mg/kg/day | TD50 (strain Sprague-Dawley, females, inhaled, site: brain, lesion: neuroblastoma, dosed 71 weeks, study length 71 weeks): 184 mg/kg/day | TD50 (strain Sprague-Dawley, females, inhaled, site: extrahepatic tissue, lesion: angioma, dosed 25 weeks, study length 135 weeks): 2990 mg/kg/day
